Patent publication US5891842A, “Methodology for eliciting an analgesic response in a living subject” (priority 1996, dated 1999)
Like-named read-outs stand apart in the source and are kept apart here.

Experiments:
[1] = cited from earlier work
[2] = oral, antitussive doses, cited from earlier work; for DOSE (figures in parentheses): not necessarily equieffective
[3] = system: Adult male Sprague-Dawley rats; test: Tail-flick analgesic testing after intrathecal administration; format: in vivo, rat
[4] = system: rats with spinal cord transection; test: Tail-flick analgesic testing after intrathecal administration, acutely transected spinal cord; format: in vivo, rat; details: 0.2 ug MS alone
[5] = 10 mg/70 kg body weight; cited from earlier work
[6] = intrathecal administration of morphine; cited from earlier work
[7] = analgesic effects after subcutaneous administration

| SMILES | DURATION OF ACTION [1, 7] | DOSE: amount given subcutaneously that produces approximately the same analgesic effects as 10 mg of morphine ([1]; in vivo, sc) | other results |
| --- | --- | --- | --- |
| CCC(=O)OC1(c2ccccc2)CCN(C)CC1C (stereo not shown) [Alphaaprodine, Alphaprodine] | 1 to 2 h | 40 |  |
| COc1ccc2c3c1O[C@H]1[C@@H](O)C=C[C@H]4[C@@H](C2)N(C)CC[C@@]341 [Codeine] |  | 120 | DURATION OF ACTION (figures in parentheses) [2]: 4 to 6 h; DOSE (figures in parentheses) [2]: 10 to 20 mg |
| C[C@H](CN1CCOCC1)C(C(=O)N1CCCC1)(c1ccccc1)c1ccccc1 [Dextromoramide] | 4 to 5 h | 5-7.5 |  |
| CCC(=O)C(CC(C)N1CCCCC1)(c1ccccc1)c1ccccc1 (stereo not shown) [Dipipanone] | 4 to 5 h | 20-25 |  |
| COc1ccc2c3c1O[C@H]1[C@@H](O)CC[C@H]4[C@@H](C2)N(C)CC[C@@]341 [Drocode, dihydrocodeine] | 4 to 5 h | 60 |  |
| CC(=O)Oc1ccc2c3c1O[C@H]1[C@@H](OC(C)=O)C=C[C@H]4[C@@H](C2)N(C)CC[C@@]341 [Heroin, diacetylmorphine] | 3 to 4 h | 4 | DOSE (figures in parentheses) [2]: 2 to 8 mg |
| COc1ccc2c3c1O[C@H]1C(=O)CC[C@H]4[C@@H](C2)N(C)CC[C@]314 [Hyrocodone, dihydrocodeinone] |  |  | DURATION OF ACTION (figures in parentheses) [2]: 4 to 8 h; DOSE (figures in parentheses) [2]: 5 to 10 mg |
| CN1CC[C@]23CCCC[C@H]2[C@H]1Cc1ccc(O)cc13 [Levorphanol] | 4 to 5 h | 2 |  |
| CN1CC[C@]23c4c5ccc(O)c4O[C@H]2[C@@H](O)C=C[C@H]3[C@H]1C5.O=S(=O)(O)O [MS, morphine sulphate] |  |  | analgesic response ([3]; 0.02 ug MS alone, intrathecal): weak response; analgesic response, peak ([3]; 0.1 ug MS alone, intrathecal): approximately 30 % MPE; analgesic response ([3]; 0.5 ug MS alone, intrathecal): maximal analgesic response between 5 and 30 min; declined to baseline ([3]; 0.5 ug MS alone, intrathecal): 60 min; analgesic response [4]: modest analgesic response |
| CCOC(=O)C1(c2ccccc2)CCN(C)CC1 [Meperidine] | 2 to 4 h | 75-100 |  |
| CCC(=O)C(CC(C)N(C)C)(c1ccccc1)c1ccccc1 (stereo not shown) [Methadone] | 3 to 5 h | 8-10 |  |
| CN1CC[C@]23c4c5ccc(O)c4O[C@H]2[C@@H](O)C=C[C@H]3[C@H]1C5 [Morphine] |  | 10 | DURATION OF ACTION ([1]; in vivo, sc): 4-5; relieves post-operative pain satisfactorily (share of patients) [5]: about two-thirds; effect on hyperalgesia of administered substance P [6]: blocks the hyperalgesic effects |
| COc1ccc2c3c1O[C@H]1C(=O)CC[C@@]4(O)[C@@H](C2)N(C)CC[C@]314 [Oxycodone, dihydrohydroxycodeinone] | 4 to 5 h | 10-15 |  |
| CN1CC[C@]23c4c5ccc(O)c4O[C@H]2C(=O)CC[C@@]3(O)[C@H]1C5 [Oxymorphone, dihydrohydroxymorphinone] | 4 to 5 h | 1.0-1.5 |  |
| CCC(=O)C(CC(C)N1CCOCC1)(c1ccccc1)c1ccccc1 (stereo not shown) [Phenadoxone] | 1 to 3 h | 10-20 |  |
| CN1CC[C@]23c4c5ccc(OCCN6CCOCC6)c4O[C@H]2[C@@H](O)C=C[C@H]3[C@H]1C5 [Pholcodine, β-morpholinylethylmorphine] |  |  | DURATION OF ACTION (figures in parentheses) [2]: 4 to 5 h; DOSE (figures in parentheses) [2]: 5 to 15 mg |
| C=CCN1CC[C@]23c4c5ccc(O)c4O[C@H]2C(=O)CC[C@@]3(O)[C@H]1C5 [naloxone] |  |  | analgesic response produced by MS in combination with SP after naloxone pretreatment ([3]; naloxone 1.0 ug intrathecal 10 min prior to 0.1 ug MS + 10 pmol SP): essentially eliminated |
